# Measured values published in PubChem BioAssay AID493130 (Broad Institute, 2011).
# Records with an inconclusive call do not appear. The source made the active and inactive calls.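 How the source made its calls: active means signal-lowering compounds whose fitted half-maximal concentration is at most ten times their highest tested dose; inconclusive means flat fit between -30 and -70%, or poor fit; inactive means flat within 30%, signal rising, or potency beyond limit.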
# Target: POS-1 (Caenorhabditis elegans) binding to mex-3 RNA
# Assay: C. elegans POS-1 RNA interaction disruptors – biochemical, fluorescence polarization, cherry-picked samples, set 2, counter-screen for MEX-5 RNA-binding inhibitor project, dose response (AID 493130);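 further: POS-1 as maltose binding protein fusion made in E. coli with FITC RNA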
# Details: POS-1/mex-3 RNA fluorescence polarization, 1 h
row,SMILES,AC50
1,CCN(CC)c1ccc(/C=C(/C#N)c2nc3ccc(C)cc3[nH]2)c(OC(C)C)c1,1.61 µM
2,COC(=O)c1cc2c(-c3ccccc3)c(C)c3ccccn3c-2c1C(=O)OC,> 10 µM (inactive)
3,NS(=O)(=O)c1ccc(-c2ccc(C=C3C(=O)NC(=S)NC3=O)o2)cc1,8.28 µM
4,Cc1cccc(N=Nc2c(O)[nH]c3ccc(F)cc23)c1,1.87 µM
5,O=c1[nH]c(-[n+]2ccccc2)c(/C=N/NC([S-])=Nc2ccccc2)s1,5.9 µM
6,Cc1cc[n+](-c2[nH]c(=O)sc2/C=N/NC([S-])=Nc2ccccc2)cc1,2.39 µM
7,Cc1cccc(N2C(=O)NC(=O)/C(=C/c3cc4c(cc3[N+](=O)[O-])OCO4)C2=O)c1,2.94 µM
8,CC1=C(C#N)C(=O)N(C2CCS(=O)(=O)C2)C(=O)/C1=C\c1ccco1 (stereo not given),3.66 µM
9,CCN1/C(=C2\SC(=S)N(Cc3ccccc3)C2=O)Sc2ccccc21,1.6 µM
10,CC1(C)CC(=O)C2=C(C1)N=c1s/c(=C/c3ccc(F)c(F)c3)c(=O)n1C2c1ccc(F)cc1 (stereo not given),> 10 µM (inactive)
11,O=C(Nc1nc2c(s1)CN(Cc1ccccc1)CC2)c1cccc(S(=O)(=O)N2CCc3ccccc32)c1,7.79 µM
12,Cc1cc(C(=O)NNC(=O)CCCCC(=O)NNC(=O)c2cc(C)[nH]n2)n[nH]1,> 10 µM (inactive)
13,Cc1cc(=O)oc(C)c1C(=O)Nc1ccc2ncccc2c1,8.33 µM

# Same assay, conditions: POS-1/mex-3 RNA fluorescence polarization, 1 h; at 10 µM (top of the series)
row,SMILES,"activity change, negative = inhibition"
1,CCOC(=O)C1Cc2ccccc2C(=O)O1 (stereo not given),inactive
2,CSc1nc(N)c(N=Nc2ccc([As](=O)(O)O)cc2)c(=O)[nH]1,inactive
3,N#CCCn1c2ccccc2c2nc3ccccc3nc21,inactive
4,COc1ccc2nc3ccccc3nc2c1NC(=O)c1ccc(Cl)cc1,inactive
5,O=C(NNC(=O)c1cccs1)c1csc(N2CCOCC2)n1,inactive
6,CC/C(=N/Nc1cccc(C)c1)c1cnnc(SC)n1,inactive
7,COc1ccc(CCn2c(=N)c(C(=O)NCC3CCCO3)cc3c(=O)n4ccccc4nc32)cc1 (stereo not given),inactive
8,CCOC(=O)NC(=O)COC(=O)c1ccc(Sc2ncn[nH]2)c([N+](=O)[O-])c1,inactive
9,CCOC(=O)C(=NC(C)C)NNc1cc(Cl)ccc1Cl,inactive
10,Cc1nc2c3ccccc3nc(NNC(=O)CCC(=O)NC(C)C)n2n1,inactive
11,O=c1[nH]nc(CNc2ccc(OC(F)(F)F)cc2)c2ccccc12,inactive
12,O=C(Cc1cccs1)Nc1nnc(SCc2ccc(Br)cc2)s1,inactive
13,O=C(Nc1cccnc1)c1cccs1,inactive
14,O=C(CN1C(=O)/C(=C/c2cccc(Br)c2)SC1=S)NC1=NCCS1,inactive
15,Cn1nc(C(=O)NNC(=O)c2ccc(Cl)cc2)ccc1=O,inactive
16,COc1ccc2ccccc2c1CNCc1ccccn1,inactive
17,CN(C)c1ccc(C(c2nnnn2CCOC(=O)Nc2ccc(Cl)cc2)N2CCOCC2)cc1 (stereo not given),inactive
18,CCc1ccc(S(=O)(=O)Nc2ccc(O)c3c(=O)cc(-c4ccccc4Cl)oc23)cc1,inactive
19,COC/C=C/C1=CC2=CC(=O)C(C)(O)C(=O)C2=CO1 (stereo not given),inactive
20,CCOc1cc(/C=N/NC(=O)N/N=C/c2ccc(O)c(OCC)c2)ccc1O,inactive
21,O=C(Nc1cccc2ncccc12)c1ccccc1[N+](=O)[O-],inactive

row,SMILES,"activity change, negative = inhibition"
1,O=C(NNS(=O)(=O)c1ccc(F)cc1)c1cnccn1,inactive
2,CCC(COC(C)=O)Nc1nc2c([nH]1)c(=O)n(C)c(=O)n2C (stereo not given),inactive
3,O=c1[nH]c(=O)n(Cc2ccccc2)c(O)c1/C=C1\C=Nc2ccccc21,inactive
4,COc1ccc(C(CC(=O)N2CCCC2)c2c(OC)cc(OC)c3ccc(=O)oc23)cc1 (stereo not given),inactive
5,CC(=O)NNc1ncnc2ccccc12,inactive
6,N#CC1=C(N)Oc2c(O)cc3ccccc3c2C1c1ccsc1 (stereo not given),inactive
7,O=c1c2ccccc2c(C=Nc2ccc(O)cc2)c(O)n1-c1nccs1,inactive
8,COC(=O)c1cccc(-c2ccc(C(c3c(C)[nH][nH]c3=O)c3c(C)[nH][nH]c3=O)o2)c1,inactive
9,O=C(N/N=C/c1cccnc1)c1ccccc1,inactive
10,COc1ccc(N(CCC#N)C(=O)/C(C#N)=C\c2cccs2)cc1,inactive
11,CC(=O)CSc1ncnc2nc[nH]c12,inactive
12,CCc1nnc(NC(=O)CCN2C(=O)/C(=C/c3cc(OC)c(OC)c(OC)c3)SC2=S)s1,inactive
13,COc1cc(/C=C/c2nc(-c3ccccc3O)n[nH]2)cc(OC)c1OC,inactive
14,O=C(O)c1ccc(NC2=C(Cl)C(=O)c3ccccc3C2=O)cc1,inactive
15,Nc1nc(N)c2[nH]cnc2n1,inactive
16,O=C(N/N=C/c1cc2c(cc1Cl)OCO2)c1ccccn1,inactive
17,Cc1c(NC(=O)c2ccc(=O)oc2)c(=O)n(-c2ccccc2)n1C,inactive
18,OC(CNC1CCCC1)COc1ccccc1Br (stereo not given),inactive
19,CCOc1ccc(/C=C/C(=O)c2ccccc2)cc1,inactive
20,O=c1nc(-c2ccccc2)c2cc(Br)ccc2[nH]1,inactive
21,COc1ccc(OC)c(-n2c(-c3cc(-c4ccco4)[nH]n3)n[nH]c2=S)c1,inactive

row,SMILES,"activity change, negative = inhibition"
1,Cc1csc(NC(=O)c2ccc(-c3ccc(Cl)cc3Cl)o2)n1,inactive
2,O=C1/C(=C\c2ccc(Br)cc2)SC(=S)N1NS(=O)(=O)c1ccccc1,inactive
3,Cc1ccc(NC(=O)CCC(=O)NNC(=S)Nc2ccccc2)c(C)c1,inactive
4,CCNC(=S)NNC(=O)c1ccccn1,inactive
5,COc1ccc(CCn2c(=N)c(C(=O)NCC3CCCO3)cc3c(=O)n4cccc(C)c4nc32)cc1 (stereo not given),inactive
6,Cc1cc(C)cc(N2C(=O)NC(=O)/C(=C/c3cccn3-c3ccc(Cl)cc3)C2=O)c1,inactive
7,O=C1C(Cl)=C(NC2CCCCC2)C(=O)N1c1ccc(Cl)cc1,inactive
8,CS(=O)(=O)c1ccccc1C(=O)Nc1cccc2ncccc12,inactive
9,COC(=O)c1cc(NC(=O)c2ccccc2)c(=O)oc1C,inactive
10,O=C(NC1CCSc2ccccc21)c1ccccc1Br (stereo not given),inactive
11,CCN1C/C(=C/c2ccc(OC)c(O)c2)C(=O)/C(=C/c2ccc(OC)c(O)c2)C1,inactive
12,O=c1cc(-c2ccccc2)oc2ccc(O)cc12,inactive
13,COc1ccc2c(c1)-c1ccccc1S(=O)(=O)N2C(C)=O,inactive
14,CCOC(=O)c1sc2nc(C)[nH]c(=S)c2c1C,inactive
15,CN(N=Nc1ccc([N+](=O)[O-])cc1)c1ccccc1,inactive
16,N=c1c(S(=O)(=O)c2ccc(Cl)cc2)cc2c(=O)n3ccccc3nc2n1CC1CCCO1 (stereo not given),inactive
17,N=C1C(c2nc3ccccc3[nH]2)=C(O)CN1c1ccccc1,inactive
18,O=C(CSc1nnc(COc2ccccc2)o1)Nc1nccs1,inactive
19,CCCCCC(=O)N(Cc1ccccc1)c1c(N)n(CCOC)c(=O)[nH]c1=O,inactive
20,COc1ccc(/C=C/C(=O)c2cc(Cl)cc(Cl)c2O)c(OC)c1,inactive
21,Cc1cc(-c2nnc(SCC(=O)Nc3nccs3)o2)no1,inactive

row,SMILES,"activity change, negative = inhibition"
1,O=[N+]([O-])c1ccc(-c2cn3nc(-c4ccccc4)c(-c4ccccc4)nc3n2)cc1,inactive
2,CCOC(=O)C1CCN(c2nc3ccccc3nc2C(C#N)C(=O)OC(C)C)CC1 (stereo not given),inactive
3,O=C(N/N=C/c1c(O)ccc2ccccc12)c1ccc[n+](CCO)c1,inactive
4,CC1(C)NC(=O)NC2(C)NC(=O)NC(C)(C)C12 (stereo not given),inactive
5,COC(=O)c1ccc(-c2ccc(C(c3c(C)[nH][nH]c3=O)c3c(C)[nH][nH]c3=O)o2)cc1,inactive
6,CCCc1nc2ccccc2c(=O)n1/N=C/c1ccc(O)c(O)c1,inactive
7,CN(N)N=Nc1nc2c([nH]1)c(=O)n(C)c(=O)n2C,inactive
8,O=c1cc[nH]c2c1ccc1c(=O)cc[nH]c12,inactive
9,COCc1cc(C)nc(N/N=C/c2ccc(-c3cc(C(=O)O)ccc3Cl)o2)c1C#N,inactive
10,CCN(CC(=O)Nc1ccc(NC(C)=O)cc1)Cc1c(O)ccc2cc(Br)ccc12,inactive
11,c1cncc(C2CC(c3cccs3)n3ncnc3N2)c1 (stereo not given),inactive
12,CCOC(=O)c1cnc(SCC(=O)NNC(=O)c2ccco2)nc1N,inactive
13,CCCc1nc2c(=O)n(C)c(=O)[nH]c2n1C,inactive
14,O=C(O)CCSc1nc2ccccc2n1Cc1ccccc1,inactive
15,O=S(=O)(Nc1ccc(O)c(NS(=O)(=O)c2ccccc2)c1)c1ccccc1,inactive
16,CS(=O)(=O)/C(C#N)=C/c1c(-c2ccccc2)nc2n1CCS2,inactive
17,NC1=NC(=O)/C(=C\c2ccc(O)c([N+](=O)[O-])c2)S1,inactive
18,Cc1cccc2c(N=Nc3ccccc3)c(O)[nH]c12,inactive
19,Cc1cc(C)c[n+](-c2[nH]c(=O)sc2/C=N/N=C(\N)[S-])c1,inactive
